According to ChEMBL document CHEMBL1201862, “PubChem BioAssay data set” (2004):
Active and inactive are the calls of the source.

Experiments:
[1] = target: Heat shock protein HSP 90-alpha (Homo sapiens, UniProt P07900); assay: Luminescence-based dose response biochemical high throughput screening assay for inhibitors of the Heat Shock Protein 90 (HSP90). [Related pubchem assays: 1831 (Summary AID.), 1846 (Confirmation screen.), 1789 (Primary screen.)]
[2] = target: Arf-GAP with SH3 domain, ANK repeat and PH domain-containing protein 1 (Homo sapiens, UniProt Q9ULH1); assay type: functional;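 further: biochemical fluorescence polarization dose–response screen measuring inhibition of ASAP1; ASAP1 GAP domain stimulating GTP hydrolysis by truncated human ARF1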
[3] = target: ADP-ribosylation factor GTPase-activating protein 1 (Rattus norvegicus, UniProt Q62848); assay: Fluorescence polarization-based biochemical high throughput dose response screening assay to identify inhibitors of ADP-ribosylation factor GTPase activating protein 1 (ARFGAP1).; assay type: functional
[4] = tested on: HT-1080; assay: cytotoxicity in HT1080 fibrosarcoma cells, cell-based, fluorescence readout (AID 620); assay type: functional; conditions: Homo sapiens
[5] = Luminescence Cell-Based Dose Confirmation to Identify Activators of 5'UTR Stem-Loop Driven Alpha-Synuclein mRNA Translation in H4 Neuroglioblastoma Cells. [Related pubchem assays: 1829 (Project Summary), 1814 (Primary HTS)]; assay type: functional
[6] = Luminescence Cell-Based Dose Response to Identify Activators of 5'UTR Stem-Loop Driven Prion Protein mRNA Translation in H4-C Neuroglioblastoma Cells. [Related pubchem assays: 1829 (Project Summary), 1814 (Primary HTS)]; assay type: functional
[7] = Luminescence Cell-Based Dose Response HTS to Identify Activators of Luciferase Translation or Activity in H4 […] Cells. [Related pubchem assays: 1829 (Project Summary), 1814 (Primary HTS)]; assay type: functional
[8] = Luminescence Cell-Based Dose Response to Identify Activators of Luciferase Translation or Activity in H4-C Neuroglioblastoma Cells. [Related pubchem assays: 1829 (Project Summary), 1814 (Primary HTS)]; assay type: functional
[9] = Concentration-dependent survival of SW480 colon cancer line, luminescence detection with CellTiter-Glo, half-maximal inhibitory concentration (AID 1117338); assay type: functional
[10] = cytotoxicity toward HCT116 cells – cell-based, CellTiter-Glo luminescence, IC50, dose response (AID 1117332); assay type: functional; conditions: HCT-116
[11] = CellTiter-Glo luminescent dose response of DLD-1 viability loss (AID 1117352); assay type: functional
[12] = HCT116 cell viability decrease, GSK3B pretreatment – CellTiter-Glo, IC50, dose response (AID 1117339); assay type: functional; conditions: HCT-116
[13] = SNU-C1 cell viability reduction, dose response, CellTiter-Glo luminescence (AID 1117323); assay type: functional, cell-based
[14] = cytotoxicity toward Colo320 cells – cell-based, CellTiter-Glo luminescence, IC50, dose response (AID 1117334); assay type: functional; conditions: COLO 320
[15] = target: T1, Polyadenylate-binding protein 1 (Homo sapiens, UniProt P11940); assay: PABP1 MLLE–PAM2 binding inhibitor potency, dose response, biochemical, fluorescence polarization, FITC-PAM2 peptide (AID 602259); assay type: functional; conditions: read-out: IC50_Mean
[16] = cytotoxicity toward HT-29 cells – cell-based, CellTiter-Glo luminescence, IC50, dose response (AID 1117330); assay type: functional
[17] = target: T1, Polyadenylate-binding protein 1; assay: PABP1 MLLE–PAM2 interaction inhibitors, dose response, miRNA deadenylation inhibitor project, biochemical, fluorescence polarization, Cy5-PAM2 peptide, secondary (AID 602260); assay type: functional; conditions: read-out: IC50_Mean
[18] = inhibitors of Bluetongue virus cytopathic effect, confirmation, arbovirus, BSR cells (AID 1250); assay type: functional;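 further: protection from viral cytopathic effect measured as cell viability by ATP luminescence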
[19] = P. falciparum late gametocyte killing, dose response, luminescence (AID 1117278); assay type: functional, cell-based;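 further: gametocytes exposed to compound for 24 hours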
[20] = Jurkat T cell cytotoxicity, dose response, cytotoxicity control for P. falciparum gametocyte viability project, luminescence (AID 1117277); assay type: functional, cell-based;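 further: potency reflects loss of cellular ATP meaning fewer viable cells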
[21] = Luminescence Cell-Based Dose Retest to Confirm Inhibitors of Cancer Stem Cells. [Related pubchem assays (depositor defined):AID2717, AID2721]; assay type: functional; conditions: Homo sapiens
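Wherever AC50 is given: cells exposed to compound for roughly 70 hours or longer before luminescence read.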

T1 sequence (P11940 whole entry): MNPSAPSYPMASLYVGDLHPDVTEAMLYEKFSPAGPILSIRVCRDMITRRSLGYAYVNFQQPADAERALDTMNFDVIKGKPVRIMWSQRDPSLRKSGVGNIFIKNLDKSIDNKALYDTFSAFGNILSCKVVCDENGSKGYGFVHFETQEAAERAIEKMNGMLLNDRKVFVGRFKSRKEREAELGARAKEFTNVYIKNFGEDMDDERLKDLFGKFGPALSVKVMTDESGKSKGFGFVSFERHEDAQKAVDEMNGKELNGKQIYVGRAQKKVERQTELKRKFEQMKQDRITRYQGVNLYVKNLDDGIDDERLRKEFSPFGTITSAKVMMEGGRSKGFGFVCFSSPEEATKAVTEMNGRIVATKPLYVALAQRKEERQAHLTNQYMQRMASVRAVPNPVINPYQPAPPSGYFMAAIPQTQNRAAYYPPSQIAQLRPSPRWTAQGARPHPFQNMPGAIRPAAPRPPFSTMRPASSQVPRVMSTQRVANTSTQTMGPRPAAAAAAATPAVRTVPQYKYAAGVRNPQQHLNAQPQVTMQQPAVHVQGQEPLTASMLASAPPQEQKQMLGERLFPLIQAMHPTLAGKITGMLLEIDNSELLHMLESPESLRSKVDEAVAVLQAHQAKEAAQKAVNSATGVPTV
Chain of ADP-ribosylation factor GTPase-activating protein 1 (Q62848 whole entry): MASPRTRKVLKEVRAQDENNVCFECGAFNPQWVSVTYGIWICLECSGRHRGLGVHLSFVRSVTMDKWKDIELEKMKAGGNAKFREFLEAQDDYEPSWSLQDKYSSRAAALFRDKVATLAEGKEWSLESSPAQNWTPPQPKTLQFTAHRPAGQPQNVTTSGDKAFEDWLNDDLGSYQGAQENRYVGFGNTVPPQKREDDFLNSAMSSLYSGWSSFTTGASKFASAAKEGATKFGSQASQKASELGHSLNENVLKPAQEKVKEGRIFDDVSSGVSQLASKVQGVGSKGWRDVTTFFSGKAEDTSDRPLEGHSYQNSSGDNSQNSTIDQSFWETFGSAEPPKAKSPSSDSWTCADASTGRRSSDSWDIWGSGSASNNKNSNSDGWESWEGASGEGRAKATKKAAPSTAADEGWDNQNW
Chain of Arf-GAP with SH3 domain, ANK repeat and PH domain-containing protein 1 (Q9ULH1 whole entry, the tested form may be a part): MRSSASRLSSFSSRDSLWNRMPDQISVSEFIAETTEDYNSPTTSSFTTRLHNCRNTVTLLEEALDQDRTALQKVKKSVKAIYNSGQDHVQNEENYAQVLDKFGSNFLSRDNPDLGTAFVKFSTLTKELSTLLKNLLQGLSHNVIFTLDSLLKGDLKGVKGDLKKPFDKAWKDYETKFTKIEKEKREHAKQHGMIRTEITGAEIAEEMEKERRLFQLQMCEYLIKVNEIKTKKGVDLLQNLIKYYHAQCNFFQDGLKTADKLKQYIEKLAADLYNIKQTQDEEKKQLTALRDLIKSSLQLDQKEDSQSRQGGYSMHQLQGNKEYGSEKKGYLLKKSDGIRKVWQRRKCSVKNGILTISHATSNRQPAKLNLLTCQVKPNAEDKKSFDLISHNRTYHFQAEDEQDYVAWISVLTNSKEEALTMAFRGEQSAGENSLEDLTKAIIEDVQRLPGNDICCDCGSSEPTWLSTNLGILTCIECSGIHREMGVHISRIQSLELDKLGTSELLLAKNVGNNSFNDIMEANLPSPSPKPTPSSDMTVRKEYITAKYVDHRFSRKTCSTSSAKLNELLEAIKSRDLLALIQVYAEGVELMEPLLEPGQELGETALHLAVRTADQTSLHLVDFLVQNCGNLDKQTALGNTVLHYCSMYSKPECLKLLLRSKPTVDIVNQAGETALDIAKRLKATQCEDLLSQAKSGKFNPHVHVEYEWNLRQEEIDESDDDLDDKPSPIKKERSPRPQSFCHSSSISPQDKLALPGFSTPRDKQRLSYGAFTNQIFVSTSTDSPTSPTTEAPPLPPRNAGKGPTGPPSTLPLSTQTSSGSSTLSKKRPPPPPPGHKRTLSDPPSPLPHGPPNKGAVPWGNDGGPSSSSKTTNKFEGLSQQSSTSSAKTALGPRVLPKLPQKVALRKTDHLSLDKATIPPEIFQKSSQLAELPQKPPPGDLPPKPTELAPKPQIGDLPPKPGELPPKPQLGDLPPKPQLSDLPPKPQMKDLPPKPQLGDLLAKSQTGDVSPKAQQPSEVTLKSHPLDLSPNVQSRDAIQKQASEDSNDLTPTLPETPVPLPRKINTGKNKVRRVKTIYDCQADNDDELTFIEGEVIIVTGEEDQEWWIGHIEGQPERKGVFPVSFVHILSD

Question: For `O=C(O)c1cc(N/N=C/c2c[nH]c3ccccc23)ccc1Cl`, which IC50 [1] is on record?
Answer: > 2 µM (active)

Question: Which IC50 [2] does the source give for `Cc1cc(C(=O)COC(=O)c2[nH]nc3ccccc23)c(C)n1C` here?
Answer: 37.6 µM (inactive)

Question: And the IC50 [3]?
Answer: 32.4 µM (inactive)

Question: And the EC50 [4]?
Answer: > 50 µM (not active)

Question: Which EC50 [5] does the source give for `CC(C)c1ccc(C(=O)NNC(=O)C2C3CCC(C3)C2C(=O)O)cc1` (stereo unspecified) here?
Answer: 0.232 µM (active)

Question: And the EC50 [6]?
Answer: 0.281 µM (active)

Question: What about the EC50 [7] of the same compound?
Answer: < 0.1 µM (inconclusive)

Question: And the EC50 [8]?
Answer: 0.301 µM (active)

Question: For `COP(=S)(OC)Oc1ccc(Sc2ccc(OP(=S)(OC)OC)cc2)cc1` [TEMEFOS], which IC50 [9] is on record?
Answer: 0.0118 µM (active)

Question: And the IC50 [10]?
Answer: > 20 µM (inactive)

Question: What about the IC50 [11] of the same compound?
Answer: > 20 µM (inactive)

Question: What about the IC50 [12] of the same compound?
Answer: > 20 µM (inactive)

Question: What about the IC50 [13] of the same compound?
Answer: 3.03 µM (active)

Question: And the IC50 [14]?
Answer: > 20 µM (inactive)

Question: And the IC50 [15]?
Answer: > 66 µM (inactive)

Question: What about the IC50 [16] of the same compound?
Answer: > 20 µM (inactive)

Question: What about the IC50 [17] of the same compound?
Answer: > 66 µM (inactive)

Question: Which IC50 [18] does the source give for `O=C(Nc1sc2c(c1C(=O)O)CCCCC2)c1cccs1` here?
Answer: 27.6 µM (active)

Question: With `Cc1ccc(C(=O)NC2c3ccccc3-c3ccccc32)cc1` as the compound, how does the IC50 [19] read?
Answer: > 109 µM (inactive)

Question: What about the IC50 [20] of the same compound?
Answer: > 1.03 µM (active)

Question: What about the AC50 [21] of the same compound?
Answer: 0.448 µM (active)
